{
  "source": "the supplement of paper PMC10307832",
  "assay_in_all_cases": "relative viability (nuclei count vs DMSO), 5 days (fraction); higher = more cells survive",
  "key": {"[1]": {"compound": "CC(=O)Nc1cccc(-n2c(=O)n(C3CC3)c(=O)c3c(Nc4ccc(I)cc4F)n(C)c(=O)c(C)c32)c1 [Trametinib] + COc1cc2c(Oc3ccc(NC(=O)C4(C(=O)Nc5ccc(F)cc5)CC4)cc3F)ccnc2cc1OCCCN1CCOCC1 [Foretinib] (partner 0.25 µM)", "in_short": "(§1)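 Lung cancer cell lines were pin-tool dosed in 1536-well plates on the day after seeding, with either a lone drug or a fixed anchor-drug dose plus five library-drug doses (not always all listed) in √10 steps. Nuclei were counted on 4× images after 5 days. Relative viability is the ratio of treated-well to vehicle-well nuclei counts, with each value a median of duplicate plates.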"}, "[2]": {"compound": "CC(=O)Nc1cccc(-n2c(=O)n(C3CC3)c(=O)c3c(Nc4ccc(I)cc4F)n(C)c(=O)c(C)c32)c1 [Trametinib] + CS(=O)(=O)CCNCc1ccc(-c2ccc3ncnc(Nc4ccc(OCc5cccc(F)c5)c(Cl)c4)c3c2)o1 [Lapatinib] (partner 2 µM)", "in_short": "as §1"}, "[3]": {"compound": "CN1C=C(C2=CC=CC=C21)/C=C\\3/C4=C(C=CC=N4)NC3=O + CC(C)C[C@H](NC(=O)[C@H](Cc1ccccc1)NC(=O)c1cnccn1)B(O)O [Bortezomib] (partner 0.002 µM)", "in_short": "as §1"}, "[4]": {"compound": "CN1C=C(C2=CC=CC=C21)/C=C\\3/C4=C(C=CC=N4)NC3=O + Cc1nc(NC(=O)N2CCC[C@H]2C(N)=O)sc1-c1ccnc(C(C)(C)C(F)(F)F)c1 [Alpelisib] (partner 2 µM)", "in_short": "as §1"}},
  "data": [
    {"cell line": "UMC-11", "values": [
      {"measurement": "relative viability", "setting": "[1]; first compound 0.0025 µM", "value": 1},
      {"measurement": "relative viability", "setting": "[1]; first compound 0.007906 µM", "value": 1.03},
      {"measurement": "relative viability", "setting": "[1]; first compound 0.025 µM", "value": 0.997},
      {"measurement": "relative viability", "setting": "[1]; first compound 0.07906 µM", "value": 1.06},
      {"measurement": "relative viability", "setting": "[1]; first compound 0.25 µM", "value": 1.03},
      {"measurement": "relative viability", "setting": "[2]; first compound 0.0025 µM", "value": 0.951},
      {"measurement": "relative viability", "setting": "[2]; first compound 0.007906 µM", "value": 0.973},
      {"measurement": "relative viability", "setting": "[2]; first compound 0.025 µM", "value": 0.348},
      {"measurement": "relative viability", "setting": "[2]; first compound 0.07906 µM", "value": 0.963},
      {"measurement": "relative viability", "setting": "[2]; first compound 0.25 µM", "value": 0.758},
      {"measurement": "relative viability", "setting": "[3]; first compound 0.02 µM", "value": 0.668},
      {"measurement": "relative viability", "setting": "[3]; first compound 0.06325 µM", "value": 0.263},
      {"measurement": "relative viability", "setting": "[3]; first compound 0.2 µM", "value": 0.572},
      {"measurement": "relative viability", "setting": "[3]; first compound 0.6325 µM", "value": 0.761},
      {"measurement": "relative viability", "setting": "[3]; first compound 2 µM", "value": 0.926},
      {"measurement": "relative viability", "setting": "[4]; first compound 0.02 µM", "value": 0.725},
      {"measurement": "relative viability", "setting": "[4]; first compound 0.06325 µM", "value": 1.02},
      {"measurement": "relative viability", "setting": "[4]; first compound 0.2 µM", "value": 1.01},
      {"measurement": "relative viability", "setting": "[4]; first compound 0.6325 µM", "value": 1.05},
      {"measurement": "relative viability", "setting": "[4]; first compound 2 µM", "value": 1.12}
    ]}
  ]
}
